Tested on: dry eye patient
Assay: Peroral administration to a dry eye patient
Format: in vivo, human
Details: perorally administered to a dry eye patient; no method or data given

## hyaluronic acid
  eye condition improving effect: any significant eye condition improving can not be attained
